Reference: patent US20220401439A1, “INTRANASAL PHARMACEUTICAL COMPOSITIONS OF CGRP INHIBITORS” (Biohaven Pharmaceutical Holding Company Ltd., priority 2019, published 2022)
Where two headings read alike, the source gives them in different places.

Test: Phase 1 multiple ascending dose (MAD) study, intranasal, pharmacokinetics
Parameters: species or system human
Details: in vivo
Procedure: A Phase 1, single-center, randomized, double-blind, placebo-controlled, sequential multiple ascending dose (MAD) study with 2 alternate dosing arms was conducted. […] The MAD portion of the study consists of 4 cohorts, with a maximum dose of 20 mg administered once daily for up to 14 days in 3 cohorts, and 20 mg administered twice daily for up to 8 days in the fourth cohort.
In addition to the 4 MAD cohorts, there were 2 alternate dosing cohorts, each consisting of 1 day dosing. The first alternate dosing cohort assessed the effect of 2 sequential administrations of 20 mg (20 mg spray [100 μL of 200 mg/mL] in alternate nostrils); with a 30 minute interval between administrations. A 2nd alternate dosing cohort assessed the effect of 2 sequential administrations of 20 mg (20 mg spray [100 μL of 200 mg/mL] in alternate nostrils); with a nose blow and 5 minute interval between administrations.
The PK data were collected from subjects in Cohorts 1 to 4.

[1] = human, inhaled or intranasal, 5 mg
[2] = human, inhaled or intranasal, 10 mg
[3] = human, inhaled or intranasal, 20 mg

## Cc1cc(C[C@@H](NC(=O)N2CCC(c3cc4ccccc4[nH]c3=O)CC2)C(=O)N2CCN(C3CCN(C)CC3)CC2)cc2cn[nH]c12 [Zavegepant, (R)—N-(3-(7-methyl-1H-indazol-5-yl)-1-(4-(1-methylpiperidin-4-yl)piperazin-1-yl)-1-oxopropan-2-yl)-4-(2-oxo-1,2-dihydroquinolin-3-yl)piperidine-1-carboxamide]
human, 20 mg
  half-life: 3.69 to 4.93 h
human, Tmax
  Tmax: ~30 min
[1]
  AUC: 20.7 ng·h/mL
  AUC0-24 (ng*h/mL) geometric mean: 24.95 ng·h/mL
  AUC0-τ ss (ng*h/mL) geometric mean: 20.66 ng·h/mL
  AUC(0-inf): 22.4 ng·h/mL
  Cl/F (L/h) Mean: 293.27 L/h
  Tmax (h) Mean: 0.52 h
  Vd/F: 1570 L
  half-life: 3.69 h
human, inhaled or intranasal, 5 mg, AUC0-24 (ng*h/mL) geometric mean
  AUC(0-t): 24.9 ng·h/mL
human, inhaled or intranasal, 5 mg, AUC0-t (ng*h/mL) geometric mean
  AUC(0-t): 19 ng·h/mL
human, inhaled or intranasal, 5 mg, Tmax (h) Mean
  Tmax: 31.2 min
[2]
  AUC: 32.9 ng·h/mL
  AUC0-24 (ng*h/mL) geometric mean: 29.61 ng·h/mL
  AUC0-τ ss (ng*h/mL) geometric mean: 32.85 ng·h/mL
  AUC(0-inf): 33.9 ng·h/mL
  Cl/F (L/h) Mean: 341.09 L/h
  Tmax (h) Mean: 0.57 h
  Vd/F: 1660 L
  half-life: 3.84 h
human, inhaled or intranasal, 10 mg, AUC0-24 (ng*h/mL) geometric mean
  AUC(0-t): 29.6 ng·h/mL
human, inhaled or intranasal, 10 mg, AUC0-t (ng*h/mL) geometric mean
  AUC(0-t): 30.9 ng·h/mL
human, inhaled or intranasal, 10 mg, Tmax (h) Mean
  Tmax: 26.4 min
[3]
  AUC: 91 ng·h/mL
  AUC0-24 (ng*h/mL) geometric mean: 80.09 ng·h/mL
  AUC0-τ ss (ng*h/mL) geometric mean: 90.98 ng·h/mL
  AUC(0-inf): 92.4 ng·h/mL
  Cl/F (L/h) Mean: 254.40 L/h
  Tmax (h) Mean: 0.56 h
  Vd/F: 1740 L
human, inhaled or intranasal, 20 mg, AUC0-24 (ng*h/mL) geometric mean
  AUC(0-t): 80.1 ng·h/mL
human, inhaled or intranasal, 20 mg, AUC0-t (ng*h/mL) geometric mean
  AUC(0-t): 87.9 ng·h/mL
human, inhaled or intranasal, 20 mg, Cmax (ng/mL) geometric mean
  Cmax: 34.7 ng/mL
human, inhaled or intranasal, 20 mg, Tmax (h) Mean
  Tmax: 34.2 min
human, inhaled or intranasal, 20 mg once daily intranasal (Cohort 3), Day 14, read-out: T1/2 el (h) Mean (converted)
  half-life: 4.93 h
human, 5 mg, Day 14, nominal time 0.500 h, read-out: Plasma Concentrations (ng/mL) Mean
  concentration at 0.5 h: 8.08 ng/mL
  urine concentrations: below the limit of quantitation
